One assay deals with STK3 (Homo sapiens (Human), UniProt Q13188). As to the kind of experiment: ADP-Glo kinase assay, STK3. The assay is classed as biochemical. The conditions noted are these: ADP-Glo, 50 μM ATP; read-out: STK3 IC50. The method, then: (§1) The STK3 kinase assay was performed in 5 μL reaction buffer containing 50 ng recombinant human STK3 protein (full length, SignalChem #S24-10G; Richmond, Canada), 250 μg/mL myelin basic protein (Sigma-Aldrich #M1891; St. Louis, MO, USA), and 50 μM ATP (Sigma-Aldrich #A7699). The STK4 kinase assay was performed in 5 μL reaction buffer containing 50 ng recombinant human STK4 protein (full length, SignalChem #S25-10G), 300 μg/mL Axltide (SignalChem #A16-58), and 50 μM ATP. […] Three experiments were performed, each in triplicate.
(ADP-Glo first removes unused ATP, then detects ADP through luciferase.)

The target of another assay is STK4 (Homo sapiens (Human), UniProt Q13043). As to the kind of experiment: ADP-Glo kinase assay, STK4. The following applies: ADP-Glo, 50 μM ATP; read-out: STK4 IC50. The assay is classed as biochemical. As to the method:
as §1

Sequence of STK4 (Q13043 whole entry): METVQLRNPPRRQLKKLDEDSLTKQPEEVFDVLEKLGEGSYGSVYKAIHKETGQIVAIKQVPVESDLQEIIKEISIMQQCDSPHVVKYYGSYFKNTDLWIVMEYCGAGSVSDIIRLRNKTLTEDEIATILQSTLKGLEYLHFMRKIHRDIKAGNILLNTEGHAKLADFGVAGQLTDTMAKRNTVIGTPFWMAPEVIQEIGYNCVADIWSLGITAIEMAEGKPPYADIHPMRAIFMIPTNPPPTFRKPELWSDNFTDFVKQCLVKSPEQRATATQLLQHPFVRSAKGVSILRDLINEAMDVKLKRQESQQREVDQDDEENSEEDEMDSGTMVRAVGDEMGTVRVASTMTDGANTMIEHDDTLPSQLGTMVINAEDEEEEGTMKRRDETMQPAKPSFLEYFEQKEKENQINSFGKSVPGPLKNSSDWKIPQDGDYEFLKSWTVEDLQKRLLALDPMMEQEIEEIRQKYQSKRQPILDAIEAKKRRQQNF
Sequence of STK3 (Q13188 whole entry): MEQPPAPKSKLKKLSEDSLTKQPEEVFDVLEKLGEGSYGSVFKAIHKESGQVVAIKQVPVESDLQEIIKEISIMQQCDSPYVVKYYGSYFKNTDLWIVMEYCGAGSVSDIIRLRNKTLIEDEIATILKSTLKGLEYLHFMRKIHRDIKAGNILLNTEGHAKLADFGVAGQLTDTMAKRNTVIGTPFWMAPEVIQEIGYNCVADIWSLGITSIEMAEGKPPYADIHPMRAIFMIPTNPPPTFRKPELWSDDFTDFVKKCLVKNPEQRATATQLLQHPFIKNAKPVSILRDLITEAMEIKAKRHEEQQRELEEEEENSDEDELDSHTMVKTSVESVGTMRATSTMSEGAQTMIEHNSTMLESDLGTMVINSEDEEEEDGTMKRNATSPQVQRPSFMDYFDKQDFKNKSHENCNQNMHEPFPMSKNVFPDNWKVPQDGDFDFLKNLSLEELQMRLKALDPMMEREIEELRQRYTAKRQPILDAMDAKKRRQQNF

Usually IC50 stands for the midpoint of a concentration-inhibition curve. Regarding `Clc1cccc(-c2c[nH]c3ncnc(N4CCC4)c23)c1` [Compound 46, 4-(azetidin-1-yl)-5-(3-chlorophenyl)-7H-pyrrolo[2,3-d]pyrimidine], the IC50 on STK3 and on STK4 was 1 to 5 µM throughout.

For the compound `CN1CCN(c2ncnc3[nH]cc(-c4cccc(Cl)c4)c23)CC1` [Compound 47, 5-(3-chlorophenyl)-4-(4-methylpiperazin-1-yl)-7H-pyrrolo[2,3-d]pyrimidine], the IC50 at STK3 and at STK4 was 1 to 5 µM in each case.

Take `CCN1CCN(c2ncnc3[nH]cc(-c4cccc(Cl)c4)c23)CC1` [Compound 48, 5-(3-chlorophenyl)-4-(4-ethylpiperazin-1-yl)-7H-pyrrolo[2,3-d]pyrimidine]: the IC50 on STK3 and at STK4 was greater than 5 µM in each case.

As to `CCNc1ncnc2[nH]cc(-c3cccc(Cl)c3)c12` [Compound 49, 5-(3-chlorophenyl)-N-ethyl-7H-pyrrolo[2,3-d]pyrimidin-4-amine], the IC50 on STK3 and at STK4 was less than 1 µM each time.

With `CCCNc1ncnc2[nH]cc(-c3cccc(Cl)c3)c12` [Compound 50, 5-(3-chlorophenyl)-N-propyl-7H-pyrrolo[2,3-d]pyrimidin-4-amine], the half-inhibitory concentration (IC50) at STK3 and on STK4 was less than 1 µM in each case.

As for `CCN(CC)c1ncnc2[nH]cc(-c3cccc(Cl)c3)c12` [Compound 51, 5-(3-chlorophenyl)-N,N-diethyl-7H-pyrrolo[2,3-d]pyrimidin-4-amine], the IC50 at STK3 and at STK4 was less than 1 µM throughout.

As to `CC(C)CNc1ncnc2[nH]cc(-c3cccc(Cl)c3)c12` [Compound 52, 5-(3-chlorophenyl)-N-isobutyl-7H-pyrrolo[2,3-d]pyrimidin-4-amine], the IC50 at STK3 and on STK4 was less than 1 µM in each case.

`C=CCNc1ncnc2[nH]cc(-c3cccc(Cl)c3)c12` [Compound 53, N-allyl-5-(3-chlorophenyl)-7H-pyrrolo[2,3-d]pyrimidin-4-amine]: the IC50 on STK3 and on STK4 was less than 1 µM in each case.

On to `OCCNc1ncnc2[nH]cc(-c3cccc(Cl)c3)c12` [Compound 54, 2-((5-(3-chlorophenyl)-7H-pyrrolo[2,3-d]pyrimidin-4-yl)amino)ethan-1-ol], for which the concentration for half-maximal inhibition (IC50) on STK3 and on STK4 was less than 1 µM each time.

`FC(F)(F)CNc1ncnc2[nH]cc(-c3cccc(Cl)c3)c12` [Compound 55, 5-(3-chlorophenyl)-N-(2,2,2-trifluoroethyl)-7H-pyrrolo[2,3-d]pyrimidin-4-amine]: the IC50 was 1 to 5 µM at STK3 and less than 1 µM on STK4.

Regarding `CN(C)CCNc1ncnc2[nH]cc(-c3cccc(Cl)c3)c12` [Compound 57, N1-(5-(3-chlorophenyl)-7H-pyrrolo[2,3-d]pyrimidin-4-yl)-N2,N2-dimethylethane-1,2-diamine], the IC50 on STK3 and at STK4 was greater than 5 µM in each case.

For `COCCNc1ncnc2[nH]cc(-c3cccc(Cl)c3)c12` [Compound 58, 5-(3-chlorophenyl)-N-(2-methoxyethyl)-7H-pyrrolo[2,3-d]pyrimidin-4-amine], the IC50 at STK3 and at STK4 was greater than 5 µM in each case.

`Clc1cccc(-c2c[nH]c3ncnc(NCc4ccn[nH]4)c23)c1` [Compound 59, N-((1H-pyrazol-5-yl)methyl)-5-(3-chlorophenyl)-7H-pyrrolo[2,3-d]pyrimidin-4-amine]: the figures for the IC50 at STK3 and on STK4 were 1 to 5 µM and less than 1 µM, respectively.

In the case of `Clc1cccc(-c2c[nH]c3ncnc(NCC4CCOCC4)c23)c1` [Compound 61, 5-(3-chlorophenyl)-N-((tetrahydro-2H-pyran-4-yl)methyl)-7H-pyrrolo[2,3-d]pyrimidin-4-amine], the IC50 on STK3 is 1 to 5 µM; at STK4 it was less than 1 µM.

For the compound `Clc1cccc(-c2c[nH]c3ncnc(NCc4ccoc4)c23)c1` [Compound 62, 5-(3-chlorophenyl)-N-(furan-3-ylmethyl)-7H-pyrrolo[2,3-d]pyrimidin-4-amine], the IC50 on STK3 and at STK4 was less than 1 µM each time.

For the compound `Clc1cccc(-c2c[nH]c3ncnc(NCCc4ccccn4)c23)c1` [Compound 63, 5-(3-chlorophenyl)-N-(2-(pyridin-2-yl)ethyl)-7H-pyrrolo[2,3-d]pyrimidin-4-amine], the half-maximal inhibitory concentration (IC50) on STK3 was 1 to 5 µM; at STK4, less than 1 µM.

On to `CC(C)CCNc1ncnc2[nH]cc(-c3cccc(Cl)c3)c12` [Compound 64, 5-(3-chlorophenyl)-N-isopentyl-7H-pyrrolo[2,3-d]pyrimidin-4-amine], for which the IC50 on STK3 and on STK4 was 1 to 5 µM in each case.

As for `CN1CCC(Nc2ncnc3[nH]cc(-c4cccc(Cl)c4)c23)CC1` [Compound 65, 5-(3-chlorophenyl)-N-(1-methylpiperidin-4-yl)-7H-pyrrolo[2,3-d]pyrimidin-4-amine], the IC50 at STK3 and on STK4 was 1 to 5 µM in each case.

For `Clc1cccc(-c2c[nH]c3ncnc(NCCN4CCOCC4)c23)c1` [Compound 66, 5-(3-chlorophenyl)-N-(2-morpholinoethyl)-7H-pyrrolo[2,3-d]pyrimidin-4-amine], the half-maximal inhibitory concentration (IC50) on STK3 and at STK4 was 1 to 5 µM throughout.

`COc1ccccc1CNc1ncnc2[nH]cc(-c3cccc(Cl)c3)c12` [Compound 68, 5-(3-chlorophenyl)-N-(2-methoxybenzyl)-7H-pyrrolo[2,3-d]pyrimidin-4-amine]: the IC50 at STK3 and at STK4 was 1 to 5 µM each time.

With `Clc1cccc(-c2c[nH]c3ncnc(NCc4ccncc4)c23)c1` [Compound 71, 5-(3-chlorophenyl)-N-(pyridin-4-ylmethyl)-7H-pyrrolo[2,3-d]pyrimidin-4-amine], the IC50 was greater than 5 µM on STK3 and 1 to 5 µM on STK4.

Take `COc1ccc(CCNc2ncnc3[nH]cc(-c4cccc(Cl)c4)c23)cc1OC` [Compound 72, 5-(3-chlorophenyl)-N-(3,4-dimethoxyphenethyl)-7H-pyrrolo[2,3-d]pyrimidin-4-amine]: the values for the IC50 on STK3 and at STK4 were greater than 5 µM and 1 to 5 µM, respectively.

For `COc1ccc(CNc2ncnc3[nH]cc(-c4cccc(Cl)c4)c23)c(OC)c1` [Compound 73, 5-(3-chlorophenyl)-N-(2,4-dimethoxybenzyl)-7H-pyrrolo[2,3-d]pyrimidin-4-amine], the IC50 at STK3 is greater than 5 µM; at STK4, 1 to 5 µM.

For the compound `COc1cccc(CNc2ncnc3[nH]cc(-c4cccc(Cl)c4)c23)c1` [Compound 74, 5-(3-chlorophenyl)-N-(3-methoxybenzyl)-7H-pyrrolo[2,3-d]pyrimidin-4-amine], the IC50 at STK3 and on STK4 was greater than 5 µM each time.

In the case of `Clc1cccc(-c2c[nH]c3ncnc(NCc4cnco4)c23)c1` [Compound 75, 5-(3-chlorophenyl)-N-(oxazol-5-ylmethyl)-7H-pyrrolo[2,3-d]pyrimidin-4-amine], the IC50 on STK3 and on STK4 was greater than 5 µM throughout.

On to `Clc1cccc(-c2c[nH]c3ncnc(NCc4cnc[nH]4)c23)c1` [Compound 76, N-((1H-imidazol-5-yl)methyl)-5-(3-chlorophenyl)-7H-pyrrolo[2,3-d]pyrimidin-4-amine], for which the half-inhibitory concentration (IC50) on STK3 and on STK4 was greater than 5 µM in each case.

Consider `Clc1cccc(-c2c[nH]c3ncnc(NCc4nccs4)c23)c1` [Compound 79, 5-(3-chlorophenyl)-N-(thiazol-2-ylmethyl)-7H-pyrrolo[2,3-d]pyrimidin-4-amine], for which the IC50 on STK3 and at STK4 was greater than 5 µM throughout.

With `CCN1CCCC1CNc1ncnc2[nH]cc(-c3cccc(Cl)c3)c12` (stereo not shown) [Compound 80, 5-(3-chlorophenyl)-N-((1-ethylpyrrolidin-2-yl)methyl)-7H-pyrrolo[2,3-d]pyrimidin-4-amine], the IC50 on STK3 and on STK4 was greater than 5 µM throughout.

Turning to `Clc1cccc(-c2c[nH]c3ncnc(N4CCC(N5CCCCC5)CC4)c23)c1` [Compound 81, 4-([1,4′-bipiperidin]-1′-yl)-5-(3-chlorophenyl)-7H-pyrrolo[2,3-d]pyrimidine], the IC50 at STK3 is greater than 5 µM; at STK4, 1 to 5 µM.

Take `CCN(CC)CCNc1ncnc2[nH]cc(-c3cccc(Cl)c3)c12` [Compound 82, N1-(5-(3-chlorophenyl)-7H-pyrrolo[2,3-d]pyrimidin-4-yl)-N2,N2-diethylethane-1,2-diamine]: the half-maximal inhibitory concentration (IC50) on STK3 and on STK4 was greater than 5 µM each time.

Consider `Clc1cccc(-c2c[nH]c3ncnc(NCCN4CCCC4)c23)c1` [Compound 83, 5-(3-chlorophenyl)-N-(2-(pyrrolidin-1-yl)ethyl)-7H-pyrrolo[2,3-d]pyrimidin-4-amine], for which the IC50 on STK3 and at STK4 was greater than 5 µM in each case.

Take `Clc1cccc(-c2c[nH]c3ncnc(NCC4CCCCCC4)c23)c1` [Compound 84, 5-(3-chlorophenyl)-N-(cycloheptylmethyl)-7H-pyrrolo[2,3-d]pyrimidin-4-amine]: the half-inhibitory concentration (IC50) on STK3 and on STK4 was greater than 5 µM throughout.

On to `Cc1ccc(CNc2ncnc3[nH]cc(-c4cccc(Cl)c4)c23)cc1C` [Compound 85, 5-(3-chlorophenyl)-N-(3,4-dimethylbenzyl)-7H-pyrrolo[2,3-d]pyrimidin-4-amine], for which the IC50 at STK3 and at STK4 was greater than 5 µM each time.

On to `Clc1cccc(-c2c[nH]c3ncnc(NCc4ccc(Cl)nc4)c23)c1` [Compound 86, 5-(3-chlorophenyl)-N-((6-chloropyridin-3-yl)methyl)-7H-pyrrolo[2,3-d]pyrimidin-4-amine], for which the IC50 on STK3 and at STK4 was greater than 5 µM in each case.

With `Clc1cccc(-c2c[nH]c3ncnc(N4CCC(c5ccccc5)CC4)c23)c1` [Compound 87, 5-(3-chlorophenyl)-4-(4-phenylpiperidin-1-yl)-7H-pyrrolo[2,3-d]pyrimidine], the IC50 at STK3 and on STK4 was greater than 5 µM in each case.

The values above are taken from patent US20250051337A1 (priority 2021, published 2025).
